Results from patent publication US20080025960A1, “Detergents with stabilized enzyme systems” (priority 2006, published 2008).

Key:
glucose oxidase [1] = molecular target: T1, glucose oxidase (Aspergillus niger, UniProt P13006); assay: Premature hydrogen peroxide generation by glucose oxidase in control buffer or AATCC liquid detergent stock (as is) with glucose and inhibitor, dipsticks; assay type: biochemical; conditions: 1 M inhibitor; same methods as Examples 1-4
T1 construct: purchased Genencor OXYGO L-5000
Excerpt: In this Example, experiments conducted to assess the stabilization of glucose oxidase in the presence of its substrate (i.e., glucose) and an inhibitor (i.e., sodium hydrogen sulfite) is described. In these experiments, AATCC standard detergent (American Association of Textile Chemists and Colorists Heavy Duty Liquid detergent version 2003 without brightener; key components include linear alkane sulfonate, alcohol ethoxylate, propanediol, citric acid, fatty acid, castic soda and water; purchased from TestFabrics) was used.
In these experiments, 100 mM Tris pH 8.3, with 0.005% TWEEN®-100 surfactant used as a positive control. […] Three two-ml tubes were weighed with 0.990 g of AATCC detergent (lot # 01282004) and another three tubes with 0.990 g of control buffer. Then, 90 mg (500 mM) of glucose substrate were added to all of the tubes. Next, 100, 50, and 10 mM sodium hydrogen sulfite (MW 106.1) were added to each tube respectively, including the control buffer and AATCC detergent control. All of the tubes were placed on a rotary plate for an hour to allow good mixing and solubilization of glucose into the detergent. Then, 500 PPM (0.5 mg, 14.88 ul) glucose oxidase (OXYGO™ L-5000, 5379 U/ml; 33.6 mg/ml; Genencor) was added to six 2-ml tubes (three with glucose/bisulfite containing control buffers and three with glucose/bisulfite containing AATCC detergent). All of the tubes were then set on the rotary plate (60 rpm) at room temperature. Hydrogen peroxide production was measured using dipsticks (peroxidase/ABTS—Baker Testrips;Baker) at various times—t=0+minutes, 12 minutes, and 30 minutes. The tube containing 100 mM bisulfite with glucose, glucose oxidase in liquid detergent was further monitored for premature generation of hydrogen peroxide further over a period of time starting at 1 hr, 12 hr, 7 days, 12 days and up to 21 days.
In these experiments, 100 mM Tris pH 8.3, with 0.005% TWEEN®-100 surfactant was used as a positive control. […] Three two-ml tubes were weighed with 0.990 g of AATCC detergent (lot # 01282004) and another three tubes with 0.990 g of control buffer.
Three two-ml tubes containing 0.990 g of AATCC detergent (lot # 01282004) and another three tubes with 0.990 g of control buffer were weighed. Then, 90 mg (500 mM) glucose substrate was added to each tube. Then, 100, 50, and 10 mM sodium metabisulfite were added to each tube respectively (i.e., both control buffer and AATCC detergent-containing tubes). All of the tubes were placed on a rotary plate for an hour to allow good mixing and solubilization of glucose into the detergent. Next, 500 PPM (0.5 mg, 14.88 ul) glucose oxidase (OXYGO™ L-5000, 5379 U/ml; 33.6 mg/ml; Genencor) was added to six 2-ml tubes (three with glucose/metabisulfite containing control buffers and three with glucose/metabisulfite containing AATCC detergent). All of the tubes were then set on the rotary plate (60 rpm) at room temperature. H2O2 production was measured using dipsticks (peroxidase/ABTS), as described in Examples 1 and 2, for t=0+ minutes, 12 minutes, and 30 minutes. The tube containing 100 mM bisulfite with glucose, glucose oxidase in liquid detergent was further monitored for premature generation of hydrogen peroxide further over a period of time starting at 1 hr, 12 hr, 7 days, 12 days and up to 21 days.

choline oxidase [2] = molecular target: T2, choline oxidase (Arthrobacter globiformis, UniProt Q7X2H8); assay: H2O2 in control buffer or AATCC liquid detergent stock with choline oxidase, choline and inhibitor; assay type: biochemical; conditions: for H2O2 PPM: 1 M choline
T2 sequence (Q7X2H8 1-546): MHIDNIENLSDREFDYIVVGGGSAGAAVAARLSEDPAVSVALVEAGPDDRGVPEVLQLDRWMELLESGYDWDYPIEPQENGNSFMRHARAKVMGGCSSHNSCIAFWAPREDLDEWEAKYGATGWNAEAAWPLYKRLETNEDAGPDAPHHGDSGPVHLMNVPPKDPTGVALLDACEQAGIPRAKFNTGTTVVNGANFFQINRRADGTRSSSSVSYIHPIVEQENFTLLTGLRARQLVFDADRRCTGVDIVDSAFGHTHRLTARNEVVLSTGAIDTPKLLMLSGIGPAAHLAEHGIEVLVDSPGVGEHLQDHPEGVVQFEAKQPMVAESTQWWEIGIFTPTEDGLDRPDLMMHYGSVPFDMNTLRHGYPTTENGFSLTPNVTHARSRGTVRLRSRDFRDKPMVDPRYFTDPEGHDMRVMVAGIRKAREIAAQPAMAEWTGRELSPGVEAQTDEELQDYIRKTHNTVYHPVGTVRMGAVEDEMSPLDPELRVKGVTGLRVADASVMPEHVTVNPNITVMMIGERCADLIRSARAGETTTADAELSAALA
Procedure: In this Example, experiments conducted to assess the stabilization of choline oxidase in the presence of its substrate (i.e., choline) and an inhibitor (i.e., sodium bisulfite and 2-amino,2-methyl,1-propanol) is described. In these experiments, AATCC standard detergent was used.
(§1) The experiments were conducted as described in Example 1. Choline oxidase produces two moles of H2O2 per mole of choline. The results obtained in these experiments confirmed that choline oxidase was stable in AATCC detergent over 24 hour period tested in presence of choline and inhibitors. […] Upon dilution in wash liquor, detergent containing choline oxidase, choline chloride and an inhibitor (e.g., sodium hydrogen sulfite or 2-amino,2-methyl,1-propanol) produced H2O2 over time, as indicated in Table 5.

choline oxidase [3] = molecular target: T2, choline oxidase; assay: H2O2 in wash liquor with choline oxidase, choline chloride and inhibitor; assay type: biochemical; conditions: 2 mM choline chloride, 0.02U enzyme, 0.4 mM AMP inhibitor
Procedure: as §1

glucose oxidase [4] = molecular target: T1, glucose oxidase; assay: Premature hydrogen peroxide generation by glucose oxidase in control buffer or AATCC liquid detergent stock (as is) with glucose and inhibitor, dipsticks; assay type: biochemical; conditions: 2 M hydroxylamine; detergent containing 1 M glucose and 500 PPM glucose oxidase
alcohol oxidase [5] = molecular target: T3, alcohol oxidase (Pichia angusta, UniProt P04841); assay: Hydrogen peroxide concentration in control buffer or AATCC liquid detergent stock (as is) with alcohol oxidase, ethanol and inhibitor; assay type: biochemical, Hansunela sp.; conditions: for H2O2 PPM: as is, 1 M ethanol, 10U enzyme, 100 mM inhibitor
T3 construct: purchased Sigma
Procedure: In these experiments, the stability of alcohol oxidase obtained from Hansunela sp., (100 U/ml. 22 U/mg, 13 mg total solid in vial, 7.7 U/mg solid; Sigma) in AATCC liquid detergent was tested. In these experiments, 10 U of the alcohol oxidase were used in liquid detergent stock for each experiment. For testing, 1M ethanol was mixed into the detergent (46 mg ethanol in 990 mg detergent). […] The experiments were conducted as described above in Examples 1 and 3.

alcohol oxidase [6] = molecular target: T3, alcohol oxidase; assay: Hydrogen peroxide concentration in wash liquor with alcohol oxidase, ethanol and inhibitor; assay type: biochemical, Hansunela sp.; conditions: 2 mM ethanol, 0.02U enzyme, 0.2 mM inhibitor
Procedure: The stability and activity of the alcohol oxidase enzyme (described in Example 5) in AATCC liquid detergent (Sigma, 100 U/ml. 22 U/mg, 13 mg total solid in vial, 7.7 U/mg solid) was tested upon dilution into wash liquor. In these experiments, 10 U of alcohol oxidase were used in liquid detergent stock for each experiment. In addition, 1M ethanol (substrate) was mixed in detergent (46 mg ethanol in 990 mg detergent). […] In these experiments, 10 ul of final detergent mix or control mix were added to 5 ml of wash liquor. The same methods as described in Examples 2 and 4 were used in these experiments.

T1 sequence (P13006 17-605): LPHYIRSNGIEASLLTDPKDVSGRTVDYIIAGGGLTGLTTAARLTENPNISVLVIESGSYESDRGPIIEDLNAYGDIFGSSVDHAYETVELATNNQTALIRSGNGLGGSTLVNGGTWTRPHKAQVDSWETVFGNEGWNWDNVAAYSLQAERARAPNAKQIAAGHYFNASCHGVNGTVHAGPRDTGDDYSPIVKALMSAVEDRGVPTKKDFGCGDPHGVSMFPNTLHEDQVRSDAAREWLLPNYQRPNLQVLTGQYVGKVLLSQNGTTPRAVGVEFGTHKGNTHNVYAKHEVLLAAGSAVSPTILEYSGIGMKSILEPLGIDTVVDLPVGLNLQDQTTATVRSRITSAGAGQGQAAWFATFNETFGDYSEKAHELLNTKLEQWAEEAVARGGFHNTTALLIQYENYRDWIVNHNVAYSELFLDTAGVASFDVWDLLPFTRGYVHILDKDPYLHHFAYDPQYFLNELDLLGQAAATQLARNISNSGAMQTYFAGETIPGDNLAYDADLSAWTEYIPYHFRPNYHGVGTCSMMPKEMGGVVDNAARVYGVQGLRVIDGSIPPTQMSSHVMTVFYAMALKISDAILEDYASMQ
T3 sequence (P04841 whole entry): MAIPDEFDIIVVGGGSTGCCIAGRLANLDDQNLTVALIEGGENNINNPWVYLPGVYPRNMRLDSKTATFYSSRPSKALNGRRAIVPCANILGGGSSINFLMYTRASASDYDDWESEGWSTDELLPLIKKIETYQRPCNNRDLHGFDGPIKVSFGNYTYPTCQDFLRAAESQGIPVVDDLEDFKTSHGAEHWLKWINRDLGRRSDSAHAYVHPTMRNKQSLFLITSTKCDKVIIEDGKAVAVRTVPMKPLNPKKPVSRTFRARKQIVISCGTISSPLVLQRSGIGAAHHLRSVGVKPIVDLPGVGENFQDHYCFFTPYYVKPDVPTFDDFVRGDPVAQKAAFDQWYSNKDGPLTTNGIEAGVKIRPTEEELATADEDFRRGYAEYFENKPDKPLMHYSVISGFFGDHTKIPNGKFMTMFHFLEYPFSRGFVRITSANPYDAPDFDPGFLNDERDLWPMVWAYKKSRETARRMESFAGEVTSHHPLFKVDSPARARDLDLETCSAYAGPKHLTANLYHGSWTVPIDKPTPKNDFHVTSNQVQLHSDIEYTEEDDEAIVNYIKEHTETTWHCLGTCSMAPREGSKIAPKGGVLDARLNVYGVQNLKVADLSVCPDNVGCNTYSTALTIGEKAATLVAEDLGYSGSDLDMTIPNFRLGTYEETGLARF

[F-].[Na+] [sodium fluoride]
glucose oxidase inhibition (glucose oxidase [1]): small degree of glucose oxidase inhibition

CC(C)(N)CO [AMP, 2-amino,2-methyl,1-propanol]
H2O2 PPM (choline oxidase [2]; AATCC Detergent, T = 0+, 1U enzyme, 100 mM AMP inhibitor): 0 PPM
H2O2 PPM (choline oxidase [2]; AATCC Detergent, T = 12 min, 1U enzyme, 100 mM AMP inhibitor): 1 PPM
H2O2 PPM (choline oxidase [2]; AATCC Detergent, T = 12 min, 1U or 10U enzyme, 200 mM AMP (pH ~9.3)): 0 PPM
premature regeneration of H2O2 in detergent (choline oxidase [2]; AMP used at 200 mM): stops premature regeneration of H2O2
H2O2 PPM (choline oxidase [2]; Control Buffer, T = 0+, 1U enzyme, 100 mM AMP inhibitor): 0 PPM
H2O2 PPM (choline oxidase [2]; Control Buffer, T = 12 min, 1U enzyme, 100 mM AMP inhibitor): 1 PPM
H2O2 PPM (choline oxidase [2]; Control Buffer, T = 12 min, 1U or 10U enzyme, 200 mM AMP (pH ~9.3)): 0 PPM
character of choline oxidase inhibition (choline oxidase [2]; sodium hydrogen sulfite at 100 mM concentration tested): reversible inhibitor
H2O2 PPM (choline oxidase [3]; AATCC Detergent, T = 0+): 1 PPM
H2O2 PPM (choline oxidase [3]; AATCC Detergent, T = 12 min): 3 PPM
H2O2 PPM (choline oxidase [3]; AATCC Detergent, T = 30 min): 3 PPM
H2O2 PPM (choline oxidase [3]; AATCC Detergent, T = 60 min): 10 PPM
H2O2 PPM (choline oxidase [3]; Control Buffer, T = 0+): 1 PPM
H2O2 PPM (choline oxidase [3]; Control Buffer, T = 12 min): 3 PPM
H2O2 PPM (choline oxidase [3]; Control Buffer, T = 30 min): 3 PPM
H2O2 PPM (choline oxidase [3]; Control Buffer, T = 60 min): 10 PPM

NO [hydroxylamine]
stabilization of premature hydrogen peroxide generation (glucose oxidase [4]): can stabilize premature hydrogen peroxide generation

O=S(O)(O)=S [sodium thiosulfate]
glucose oxidase inhibition (glucose oxidase [1]): small degree of glucose oxidase inhibition
character of alcohol oxidase inhibition (alcohol oxidase [5]; 100 mM concentration tested): week inhibitor
H2O2 PPM (alcohol oxidase [5]; AATCC Detergent, T = 0+): 3 PPM
H2O2 PPM (alcohol oxidase [5]; AATCC Detergent, T = 120 min): (>10--thiosulfate) PPM
H2O2 PPM (alcohol oxidase [5]; Control Buffer, T = 0+): ˜10 PPM
H2O2 PPM (alcohol oxidase [5]; Control Buffer, T = 120 min): 0 PPM
H2O2 PPM (alcohol oxidase [6]; AATCC Detergent, T = 0+): 0 PPM
H2O2 PPM (alcohol oxidase [6]; AATCC Detergent, T = 30 min): 0 PPM
H2O2 PPM (alcohol oxidase [6]; AATCC Detergent, T = 120 min): >3 (thiosulfate) PPM
H2O2 PPM (alcohol oxidase [6]; Control Buffer, T = 0+): 0 PPM
H2O2 PPM (alcohol oxidase [6]; Control Buffer, T = 30 min): 0 PPM
